Values joined by “and” are separate entries in the source; they are usually repeats but may differ in a detail not shown here. Equal entries are not always repeated. ± gives the expanded uncertainty stated by the source.
What was measured:
[1] = Liquid; for viscosity / speed of sound: 101 kPa; for viscosity: Capillary tube (Ostwald / Ubbelohde) method; for mass density: 101.33 kPa, Vibrating tube method; for speed of sound: Frequency=2 MHz, Pulse-echo method
[2] = xn = mol fraction of the nth substance listed; conditions: Liquid; for viscosity / speed of sound: 101 kPa; for viscosity: Capillary tube (Ostwald / Ubbelohde) method; for speed of sound: Frequency=2 MHz, Pulse-echo method; for mass density: 101.33 kPa, Vibrating tube method

Row | SMILES | viscosity ([1]; 298.15 K) | mass density ([1]; 298.15 K) | viscosity ([1]; 303.15 K) | speed of sound ([1]; 303.15 K) | mass density ([1]; 303.15 K) | viscosity ([1]; 308.15 K) | speed of sound ([1]; 308.15 K) | mass density ([1]; 308.15 K) | viscosity ([1]; 313.15 K) | speed of sound ([1]; 313.15 K) | mass density ([1]; 313.15 K) | viscosity ([2]; 303.15 K, x2 = 0) | speed of sound ([2]; 303.15 K, x2 = 0) | mass density ([2]; 303.15 K, x2 = 0) | viscosity ([2]; 308.15 K, x2 = 0) | speed of sound ([2]; 308.15 K, x2 = 0) | mass density ([2]; 308.15 K, x2 = 0) | viscosity ([2]; 313.15 K, x2 = 0) | speed of sound ([2]; 313.15 K, x2 = 0) | mass density ([2]; 313.15 K, x2 = 0) | further results
1 | ClC(Cl)=C(Cl)Cl [tetrachloroethene] | 0.847 ± 0.012 mPa·s | 1614.8 ± 0.8 kg/m3 | 0.7971 ± 0.012 mPa·s | 1028 ± 6.3 m/s | 1607.2 ± 0.8 kg/m3 | 0.7657 ± 0.012 mPa·s | 1014 ± 6.2 m/s | 1597.9 ± 0.8 kg/m3 | 0.7395 ± 0.012 mPa·s | 996.6 ± 6.1 m/s | 1590.6 ± 0.8 kg/m3 |  |  |  |  |  |  |  |  |  | 
2 | ClC(Cl)C(Cl)Cl [1,1,2,2-tetrachloroethane] |  | 1586.8 ± 1.4 kg/m3 | 1.456 ± 0.017 mPa·s | 1134.7 ± 7 m/s | 1579.6 ± 1.4 kg/m3 | 1.354 ± 0.017 mPa·s | 1115.5 ± 6.9 m/s | 1570.6 ± 1.4 kg/m3 | 1.261 ± 0.016 mPa·s | 1095.5 ± 6.8 m/s | 1563.7 ± 1.4 kg/m3 |  |  |  |  |  |  |  |  |  | 
3 | ClC(Cl)=C(Cl)Cl [tetrachloroethene] + N#CCc1ccccc1 |  |  |  |  |  |  |  |  |  |  |  | 0.7971 ± 0.012 mPa·s | 1028 ± 6.3 m/s | 1607.2 ± 0.8 kg/m3 | 0.7657 ± 0.012 mPa·s | 1014 ± 6.2 m/s | 1597.9 ± 0.8 kg/m3 | 0.7395 ± 0.012 mPa·s | 996.6 ± 6.1 m/s | 1590.6 ± 0.8 kg/m3 | 
4 | ClC=C(Cl)Cl [trichloroethene] | 0.527 ± 0.011 mPa·s | 1455.9 ± 0.6 kg/m3 | 0.5172 ± 0.011 mPa·s | 1014.7 ± 6.2 m/s | 1447.5 ± 0.6 kg/m3 | 0.4992 ± 0.011 mPa·s | 993.7 ± 6.1 m/s | 1437.8 ± 0.6 kg/m3 | 0.4833 ± 0.011 mPa·s | 982 ± 6 m/s | 1430.4 ± 0.6 kg/m3 |  |  |  |  |  |  |  |  |  | 
5 | ClC=C(Cl)Cl [trichloroethene] + N#CCc1ccccc1 |  |  |  |  |  |  |  |  |  |  |  | 0.5172 ± 0.011 mPa·s | 1014.7 ± 6.2 m/s | 1447.5 ± 0.6 kg/m3 | 0.4992 ± 0.011 mPa·s | 993.7 ± 6.1 m/s | 1437.8 ± 0.6 kg/m3 | 0.4833 ± 0.011 mPa·s | 982 ± 6 m/s | 1430.4 ± 0.6 kg/m3 | 
6 | ClCCCl [1,2-dichloroethane] | 0.776 ± 0.012 mPa·s | 1246.7 ± 0.4 kg/m3 | 0.7237 ± 0.012 mPa·s | 1174 ± 7.2 m/s | 1238.7 ± 0.4 kg/m3 | 0.6737 ± 0.011 mPa·s | 1164.8 ± 7.1 m/s | 1230.5 ± 0.4 kg/m3 | 0.6419 ± 0.011 mPa·s | 1153.5 ± 7 m/s | 1223.7 ± 0.4 kg/m3 |  |  |  |  |  |  |  |  |  | 
7 | N#CCc1ccccc1 [benzeneacetonitrile] + ClCC(Cl)Cl |  |  |  |  |  |  |  |  |  |  |  |  |  |  |  |  |  |  |  |  | viscosity ([2]; 303.15 K, x1 = 1): 1.761 ± 0.023 mPa·s; speed of sound ([2]; 303.15 K, x1 = 1): 1519.2 ± 9.4 m/s; mass density ([2]; 303.15 K, x1 = 1): 1008.8 ± 0.9 kg/m3; viscosity ([2]; 308.15 K, x1 = 1): 1.602 ± 0.021 mPa·s; speed of sound ([2]; 308.15 K, x1 = 1): 1512.9 ± 9.3 m/s; mass density ([2]; 308.15 K, x1 = 1): 1004.1 ± 0.8 kg/m3; viscosity ([2]; 313.15 K, x1 = 1): 1.489 ± 0.02 mPa·s; speed of sound ([2]; 313.15 K, x1 = 1): 1503.4 ± 9.3 m/s; mass density ([2]; 313.15 K, x1 = 1): 999.5 ± 0.8 kg/m3
8 | N#CCc1ccccc1 [benzeneacetonitrile] |  |  | 1.761 ± 0.023 mPa·s | 1519.2 ± 9.4 m/s | 1008.83 ± 0.86 kg/m3 and 1008.8 ± 0.9 kg/m3 | 1.602 ± 0.021 mPa·s | 1512.9 ± 9.3 m/s | 1004.1 ± 0.8 kg/m3 | 1.489 ± 0.02 mPa·s | 1503.4 ± 9.3 m/s | 999.5 ± 0.8 kg/m3 |  |  |  |  |  |  |  |  |  | 
9 | ClCCCl [1,2-dichloroethane] + N#CCc1ccccc1 |  |  |  |  |  |  |  |  |  |  |  | 0.7237 ± 0.012 mPa·s | 1174 ± 7.1 m/s | 1238.7 ± 0.4 kg/m3 | 0.6737 ± 0.011 mPa·s | 1164.8 ± 7.1 m/s | 1230.5 ± 0.4 kg/m3 | 0.6419 ± 0.011 mPa·s | 1153.5 ± 7 m/s | 1223.7 ± 0.4 kg/m3 | 
10 | ClCC(Cl)Cl [1,1,2-trichloroethane] | 1.105 ± 0.016 mPa·s |  | 1.019 ± 0.016 mPa·s | 1129.2 ± 7.1 m/s | 1425 ± 1.8 kg/m3 | 0.9483 ± 0.015 mPa·s | 1115.9 ± 7 m/s | 1416.1 ± 1.8 kg/m3 | 0.8888 ± 0.015 mPa·s | 1096.1 ± 6.9 m/s | 1409.6 ± 1.8 kg/m3 |  |  |  |  |  |  |  |  |  | 
11 | ClC(Cl)C(Cl)Cl [1,1,2,2-tetrachloroethane] + N#CCc1ccccc1 |  |  |  |  |  |  |  |  |  |  |  | 1.456 ± 0.017 mPa·s | 1134.7 ± 7 m/s | 1579.6 ± 1.4 kg/m3 | 1.354 ± 0.017 mPa·s | 1115.5 ± 6.9 m/s | 1570.6 ± 1.4 kg/m3 | 1.261 ± 0.016 mPa·s | 1095.5 ± 6.8 m/s | 1563.7 ± 1.4 kg/m3 | 

Reference: the NIST ThermoML archive (doi:10.1021/je900570e)
